Experimental data taken from ChEMBL document CHEMBL1201862, “PubChem BioAssay data set” (2004).
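Five compound concentrations were applied to cells in 96-well plates for 48 hours; endpoints were derived by simple linear interpolation of the resulting dose-response curve. At the GI50, growth is halved.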 Activity calls are given as the source filed them. No stated cut-off is given here; in the data, active = GI50 up to about 1.1 µM and inactive = higher. Non-standard residues stand in square brackets, D forms with d. Residues, ends and D or L forms follow the SMILES beside them. ξ: configuration not given here. *: point of attachment. ξF = NC(Cc1ccccc1)C(=O)O; Cbz = O=C(OCc1ccccc1)*

Assays:
Assay in all cases: NCI tumour cell line growth inhibition, 48 h
IGROV-1 = system: IGROV-1
KM12 = system: KM12
SNB-19 = system: SNB-19
SK-OV-3 = system: SK-OV-3
OVCAR-4 = system: OVCAR-4
NCI-H522 = system: NCI-H522
RXF 393 = system: RXF 393
HCT-15 = system: HCT-15
NCI-H226 = system: NCI-H226
HOP-62 = system: HOP-62
UACC-257 = system: UACC-257
SR = system: SR
SW-620 = system: SW-620
NCI-H23 = system: NCI-H23
HCC 2998 = system: HCC 2998
UO-31 = system: UO-31
MDA-MB-231 = system: MDA-MB-231
RPMI-8226 = system: RPMI-8226
SF-295 = system: SF-295
OVCAR-5 = system: OVCAR-5
MDA-N = system: MDA-N
OVCAR-8 = system: OVCAR-8
DU-145 = system: DU-145
COLO 205 = system: COLO 205
EKVX = system: EKVX
T47D = system: T47D
LOX IMVI = system: LOX IMVI
CAKI-1 = system: CAKI-1
MOLT-4 = system: MOLT-4
A549 = system: A549
ACHN = system: ACHN
CCRF-CEM = system: CCRF-CEM
M14 = system: M14
SF-539 = system: SF-539
U-251 = system: U-251
Malme-3M = system: Malme-3M
SK-MEL-2 = system: SK-MEL-2
MCF7 = system: MCF7
SK-MEL-28 = system: SK-MEL-28
NCI/ADR-RES = system: NCI/ADR-RES
Hs-578T = system: Hs-578T
SN12C = system: SN12C
MDA-MB-435 = system: MDA-MB-435
NCI-H460 = system: NCI-H460
K562 = system: K562
BT-549 = system: BT-549
HCT-116 = system: HCT-116
PC-3 = system: PC-3
SK-MEL-5 = system: SK-MEL-5
HT-29 = system: HT-29
TK-10 = system: TK-10
786-0 = system: 786-0
OVCAR-3 = system: OVCAR-3
SF-268 = system: SF-268
HOP-92 = system: HOP-92
SNB-75 = system: SNB-75
HL-60 = system: HL-60
A498 = system: A498
UACC-62 = system: UACC-62

N#Cc1nc(CCCCCN2C(=O)c3ccccc3C2=O)oc1N
GI50 (IGROV-1): > 100 µM (inactive)
GI50 (KM12): > 100 µM (inactive)
GI50 (SNB-19): > 100 µM (inactive)
GI50 (SK-OV-3): > 100 µM (inactive)
GI50 (OVCAR-4): > 100 µM (inactive)
GI50 (NCI-H522): 4.84 µM (inactive)
GI50 (RXF 393): > 100 µM (inactive)
GI50 (HCT-15): > 100 µM
GI50 (NCI-H226): > 100 µM (inactive)
GI50 (HOP-62): > 100 µM (inactive)
GI50 (UACC-257): > 100 µM (inactive)
GI50 (SR): > 100 µM (inactive)
GI50 (SW-620): > 100 µM (inactive)
GI50 (NCI-H23): > 100 µM (inactive)
GI50 (HCC 2998): 16.3 µM (inactive)
GI50 (UO-31): 94.4 µM (inactive)
GI50 (MDA-MB-231): > 100 µM (inactive)
GI50 (RPMI-8226): 21.1 µM (inactive)
GI50 (SF-295): > 100 µM (inactive)
GI50 (OVCAR-5): > 100 µM (inactive)
GI50 (MDA-N): > 100 µM (inactive)
GI50 (OVCAR-8): > 100 µM (inactive)
GI50 (DU-145): > 100 µM (inactive)
GI50 (COLO 205): > 100 µM (inactive)
GI50 (EKVX): > 100 µM (inactive)
GI50 (T47D): > 100 µM (inactive)
GI50 (LOX IMVI): > 100 µM (inactive)
GI50 (CAKI-1): > 100 µM (inactive)
GI50 (MOLT-4): 75.7 µM (inactive)
GI50 (A549): > 100 µM (inactive)
GI50 (ACHN): > 100 µM (inactive)
GI50 (CCRF-CEM): 1.91 µM (inactive)
GI50 (M14): > 100 µM (inactive)
GI50 (SF-539): > 100 µM (inactive)
GI50 (U-251): > 100 µM (inactive)
GI50 (Malme-3M): > 100 µM (inactive)
GI50 (SK-MEL-2): > 100 µM (inactive)
GI50 (MCF7): > 100 µM (inactive)
GI50 (SK-MEL-28): > 100 µM (inactive)
GI50 (NCI/ADR-RES): > 100 µM (inactive)
GI50 (Hs-578T): > 100 µM (inactive)
GI50 (SN12C): > 100 µM (inactive)
GI50 (MDA-MB-435): > 100 µM (inactive)
GI50 (NCI-H460): > 100 µM (inactive)
GI50 (K562): 17 µM (inactive)
GI50 (BT-549): 25.7 µM (inactive)
GI50 (HCT-116): > 100 µM (inactive)
GI50 (PC-3): > 100 µM (inactive)
GI50 (SK-MEL-5): > 100 µM (inactive)
GI50 (HT-29): > 100 µM (inactive)
GI50 (TK-10): > 100 µM (inactive)
GI50 (786-0): > 100 µM (inactive)
GI50 (OVCAR-3): > 100 µM (inactive)
GI50 (SF-268): > 100 µM (inactive)

CCOC(=O)CNC(=O)C(Cc1ccccc1)NC(=O)OCc1ccccc1 (centres undefined) (Cbz-[ξF]-Gly-OEt)
GI50 (IGROV-1): > 100 µM (inactive)
GI50 (KM12): > 100 µM (inactive)
GI50 (SNB-19): > 100 µM (inactive)
GI50 (SK-OV-3): > 100 µM (inactive)
GI50 (HCT-15): > 100 µM
GI50 (NCI-H226): > 100 µM (inactive)
GI50 (HOP-62): > 100 µM (inactive)
GI50 (SR): > 100 µM (inactive)
GI50 (SW-620): > 100 µM (inactive)
GI50 (NCI-H23): > 100 µM (inactive)
GI50 (HOP-92): > 100 µM (inactive)
GI50 (HCC 2998): > 100 µM (inactive)
GI50 (UO-31): > 100 µM (inactive)
GI50 (MDA-MB-231): > 100 µM (inactive)
GI50 (RPMI-8226): > 100 µM (inactive)
GI50 (SF-295): > 100 µM (inactive)
GI50 (OVCAR-5): > 100 µM (inactive)
GI50 (MDA-N): > 100 µM (inactive)
GI50 (OVCAR-8): > 100 µM (inactive)
GI50 (DU-145): > 100 µM (inactive)
GI50 (COLO 205): > 100 µM (inactive)
GI50 (EKVX): > 100 µM (inactive)
GI50 (T47D): 71.9 µM (inactive)
GI50 (LOX IMVI): > 100 µM (inactive)
GI50 (MOLT-4): > 100 µM (inactive)
GI50 (A549): > 100 µM (inactive)
GI50 (ACHN): > 100 µM (inactive)
GI50 (CCRF-CEM): > 100 µM (inactive)
GI50 (SNB-75): > 100 µM (inactive)
GI50 (M14): > 100 µM (inactive)
GI50 (U-251): > 100 µM (inactive)
GI50 (Malme-3M): 86.3 µM (inactive)
GI50 (MCF7): > 100 µM (inactive)
GI50 (NCI/ADR-RES): > 100 µM (inactive)
GI50 (Hs-578T): 70.8 µM (inactive)
GI50 (HL-60): > 100 µM (inactive)
GI50 (SN12C): > 100 µM (inactive)
GI50 (MDA-MB-435): > 100 µM (inactive)
GI50 (NCI-H460): > 100 µM (inactive)
GI50 (K562): > 100 µM (inactive)
GI50 (BT-549): > 100 µM (inactive)
GI50 (HCT-116): > 100 µM (inactive)
GI50 (PC-3): > 100 µM (inactive)
GI50 (SK-MEL-5): > 100 µM (inactive)
GI50 (HT-29): > 100 µM (inactive)
GI50 (786-0): > 100 µM (inactive)
GI50 (OVCAR-3): > 100 µM (inactive)
GI50 (SF-268): > 100 µM (inactive)
GI50 (A498): 53.8 µM (inactive)

COc1ccc(CNc2nc(NCc3ccc(OC)cc3)nc(NC3CCCCC3)n2)cc1
GI50 (IGROV-1): 2.09 µM (inactive)
GI50 (KM12): 1.5 µM (inactive)
GI50 (SNB-19): 2.07 µM (inactive)
GI50 (SK-OV-3): 3.87 µM (inactive)
GI50 (OVCAR-4): 10 µM (inactive)
GI50 (NCI-H522): 1.21 µM (inactive)
GI50 (HCT-15): 2.13 µM
GI50 (NCI-H226): 1.93 µM (inactive)
GI50 (HOP-62): 5.5 µM (inactive)
GI50 (UACC-257): 53.8 µM (inactive)
GI50 (SR): 3.29 µM (inactive)
GI50 (SW-620): 3.56 µM (inactive)
GI50 (UACC-62): 2 µM (inactive)
GI50 (HOP-92): 24 µM (inactive)
GI50 (HCC 2998): 1.11 µM (active)
GI50 (UO-31): 4.32 µM (inactive)
GI50 (MDA-MB-231): 2.48 µM (inactive)
GI50 (RPMI-8226): 3.21 µM (inactive)
GI50 (SF-295): 1.34 µM (inactive)
GI50 (OVCAR-5): 4.99 µM (inactive)
GI50 (MDA-N): 0.65 µM (active)
GI50 (OVCAR-8): 2.6 µM (inactive)
GI50 (DU-145): 2.9 µM (inactive)
GI50 (COLO 205): 1.94 µM (inactive)
GI50 (EKVX): 2.57 µM (inactive)
GI50 (T47D): 3.51 µM (inactive)
GI50 (LOX IMVI): 3.13 µM (inactive)
GI50 (CAKI-1): 1.07 µM (active)
GI50 (MOLT-4): > 100 µM (inactive)
GI50 (A549): 2 µM (inactive)
GI50 (ACHN): 5.11 µM (inactive)
GI50 (CCRF-CEM): 2.21 µM (inactive)
GI50 (M14): 2.15 µM (inactive)
GI50 (SF-539): 3.01 µM (inactive)
GI50 (U-251): 3.03 µM (inactive)
GI50 (Malme-3M): 0.225 µM (active)
GI50 (SK-MEL-2): 2.81 µM (inactive)
GI50 (MCF7): 0.112 µM (active)
GI50 (SK-MEL-28): > 100 µM (inactive)
GI50 (NCI/ADR-RES): 1.8 µM (inactive)
GI50 (Hs-578T): 1.77 µM (inactive)
GI50 (HL-60): 4.34 µM (inactive)
GI50 (SN12C): 3.07 µM (inactive)
GI50 (MDA-MB-435): 0.472 µM (active)
GI50 (NCI-H460): 2.7 µM (inactive)
GI50 (K562): 5.35 µM (inactive)
GI50 (BT-549): 4.08 µM (inactive)
GI50 (HCT-116): 3.12 µM (inactive)
GI50 (PC-3): 3.21 µM (inactive)
GI50 (SK-MEL-5): 3.56 µM (inactive)
GI50 (HT-29): 3.46 µM (inactive)
GI50 (TK-10): 0.975 µM (active)
GI50 (786-0): 2.81 µM (inactive)
GI50 (OVCAR-3): 2.2 µM (inactive)
GI50 (SF-268): 2.24 µM (inactive)
GI50 (A498): 48.6 µM (inactive)
